Experimental data published in patent US12171758B1, “Crystalline salt forms of kappa opioid receptor antagonist and products and methods related thereto” (Neumora Therapeutics, Inc., priority 2023, dated 2024).
Several values for one entry are separate records, joined by “and”; a condition that tells them apart may be missing. Equal values may be shown once.

What was measured:
Type in all cases: physicochemical
[1] = Solubility measurement in organic solvents at 25° C. for 24 hours; details: for solubility at 24 h: organic solvent or mixture, thermodynamic from solid; for Final form of residual solids: XRPD
[2] = pKa measurement (Sirius T3, Yasuda-Shedlovsky extrapolation); details: Sirius T3, MeOH and KCl solution, pH 2 to 12, Yasuda-Shedlovsky extrapolation
Text: pKa Measurements pKa measurements were taken using a Sirius T3 instrument in a solvent (MeOH and KCl solution). The process ran from low to high pH (2 to 12). MEC Measurements

[3] = Molar extinction coefficient (MEC) to evaluate photo reactivity; details: for MEC Ave.: average of duplicate
Procedure: The actual weight was recorded. The solid was dissolved and diluted to volume with ACN:H2O (1:1, v/v). Stock solutions were prepared in duplicate. The stock solutions were diluted by 50 times by transferring 1 mL of stock solution into 50-mL volumetric flask and then diluted to volume with ACN/water ACN:H2O (1:1, v/v). The 1/50 solutions were used to collect spectra with full wave scanning from 190 nm to 700 nm and absorbance at 235 nm, 270 nm, 290 nm and 365 nm using spectrophotometer with the background subtracted. MEC was then calculated by the following equation: MEC(L mol−1 cm−1)=Absorbance/conc.(mol/L)/Cell length(cm) Log D7.6 Measurements Preparation of Solvents • 0.1 M KH2PO4: 1.36 g of solid KH2PO4 was added into a 100-mL volumetric flask, the solid was dissolved with ultrapure water and diluted to volume. • 0.1 M K2HPO4: 1.73 g of solid K2HPO4 was added into a 100-mL volumetric flask, the solid was dissolved with ultrapure water and diluted to volume. • 100 mL of 0.1 M K2HPO4 solution and 30 mL of 0.1 M KH2PO4 was transferred to a 250-mL beaker and mixed. Then, pH was adjusted 7.4 with the KH2PO4 solution. • Octanol and aqueous buffer were pre-equilibrated by adding 10 mL octanol and 10 mL aqueous buffer into a 20-mL glass vial and agitating the vial for 24 hrs. The mutually saturated octanol and aqueous buffer were then separated after phase separation. Sample Set up • Approximately 1.0 mg solids were weighted into a 3-mL glass vial with 1.0 mL of octanol inside, and dissolution was accelerated by ultrasonication. Then, 1.0 mL of complementary aqueous buffer was added into the vial. Samples were prepared in triplicate. The glass vial was sealed and mixed on a rotary mixer at 25° C. for 24 hrs. Sample Analysis and Data Calculation • After phase separated, the phases were physically separated, and the concentrations of compounds in each phase were determined by HPLC using the HPLC conditions and parameters in Table 5. • Distribution coefficient, referred to as Dow, was calculated as the concentration of the test compound (both ionized and unionized) in the octanol phase divided by the corresponding concentration in the aqueous phase. Log D7.6 was calculated as an average of the log 10 of Dow based on three runs. Solubility/Stability Measurements in pH Buffers Stock Solution Preparation • 0.2 M Hydrochloric Acid: 166 μL of 12 M hydrochloric acid is added into a 10-mL volumetric flask, and the resulting mixture was diluted to volume with purified water and mixed. • 0.2 M Sodium Hydroxide: 80.0 mg of sodium hydroxide was weighted into a 10-mL volumetric flask. The solid was dissolved with volume of purified water, diluted to volume and mixed. • 0.2 M Potassium Chloride: 148.8 mg of potassium chloride was weighted into a 10-mL volumetric flask. The solid was dissolved with volume of purified water, diluted to volume and mixed. • 0.2 M Potassium Phosphate, Monobasic: 271.5 mg of monobasic potassium phosphate (KH2PO4) was weighed into a 10-mL volumetric flask. The solid was dissolved with appropriate volume of purified water, diluted to volume and mixed. • 0.2 M Boric Acid and Potassium Chloride: 124.3 mg of boric acid (H3BO3) and 149.5 mg of potassium chloride (KCl) were mixed into a 10-mL volumetric flask. The solid was dissolved with appropriate volume of purified water, diluted to volume and mixed. pH Buffers Preparation • 50 mM KCl pH 2.0 buffer: 2.5 mL of 0.2 M potassium chloride solution and 0.65 mL of 0.2 M hydrochloric acid solution were transferred to a 10-mL volumetric flask. Purified water is added to the target volume, and pH is adjusted to 2.0. The mixture was then diluted to volume with purified water, mixed, and pH was measured with a pH meter. • 50 mM citrate pH 4.0 buffer: 65.3 mg of citric acid (monohydrate) and 56.9 mg of sodium citrate (dihydrate) were transferred to a 10-mL volumetric flask, purified water was added to obtain the target volume, and pH was adjust to 4.0. […]

[4] = Log D7.6 shake-flask (octanol/phosphate buffer) and Log P calculation; details: pH 7.6
Procedure: The actual weight was recorded. The solid was dissolved and diluted to volume with ACN:H2O (1:1, v/v). Stock solutions were prepared in duplicate. The stock solutions were diluted by 50 times by transferring 1 mL of stock solution into 50-mL volumetric flask and then diluted to volume with ACN/water ACN:H2O (1:1, v/v). The 1/50 solutions were used to collect spectra with full wave scanning from 190 nm to 700 nm and absorbance at 235 nm, 270 nm, 290 nm and 365 nm using spectrophotometer with the background subtracted. MEC was then calculated by the following equation: MEC(L mol−1 cm−1)=Absorbance/conc.(mol/L)/Cell length(cm) Log D7.6 Measurements Preparation of Solvents • 0.1 M KH2PO4: 1.36 g of solid KH2PO4 was added into a 100-mL volumetric flask, the solid was dissolved with ultrapure water and diluted to volume. • 0.1 M K2HPO4: 1.73 g of solid K2HPO4 was added into a 100-mL volumetric flask, the solid was dissolved with ultrapure water and diluted to volume. • 100 mL of 0.1 M K2HPO4 solution and 30 mL of 0.1 M KH2PO4 was transferred to a 250-mL beaker and mixed. […] Sample Analysis and Data Calculation • After phase separated, the phases were physically separated, and the concentrations of compounds in each phase were determined by HPLC using the HPLC conditions and parameters in Table 5. • Distribution coefficient, referred to as Dow, was calculated as the concentration of the test compound (both ionized and unionized) in the octanol phase divided by the corresponding concentration in the aqueous phase. Log D7.6 was calculated as an average of the log 10 of Dow based on three runs. […] The mixture was then diluted to volume with purified water, mixed, and pH was measured with a pH meter. • 50 mM citrate pH 4.0 buffer: 65.3 mg of citric acid (monohydrate) and 56.9 mg of sodium citrate (dihydrate) were transferred to a 10-mL volumetric flask, purified water was added to obtain the target volume, and pH was adjust to 4.0. […]

CCc1cc(F)c2nc(N3CCC(NC4CCOCC4)CC3)c(-c3nc(C)no3)c(C)c2c1.Cl [HCl salt Type A, 1-(6-ethyl-8-fluoro-4-methyl-3-(3-methyl-1,2,4-oxadiazol-5-yl)quinolin-2-yl)-N-(tetrahydro-2H-pyran-4-yl)piperidin-4-amine hydrochloride]
solubility at 24 h ([1]; 25 °C, nonpolar solvents (hexane, heptane and toluene)): < 88 µg/mL | solubility at 24 h ([1]; 25 °C, polar solvents (DMSO and MeOH)): > 24900 µg/mL | Final form of residual solids ([1]; Acetone, 24 hrs): HCl salt Type A | Final form of residual solids ([1]; DMSO, 24 hrs, hydrochloride): Amorphous form | Final form of residual solids ([1]; DMSO, 24 hrs, listed as HCl Salt Type A, hydrochloride): Amorphons | Final form of residual solids ([1]; EtOAc (printed EtQAc), 24 hrs): HCl salt Type A | Final form of residual solids ([1]; EtOH, 24 hrs): HCl salt Type A | Final form of residual solids ([1]; Heptane, 24 hrs): HCl salt Type A | Final form of residual solids ([1]; Hexane, 24 hrs): HCl salt Type A | Final form of residual solids ([1]; IPA, 24 hrs): HCl salt Type A | Final form of residual solids ([1]; MeOH, 24 hrs): HCl salt Type A | Final form of residual solids ([1]; Toluene, 24 hrs): HCl salt Type A | solubility at 24 h ([1]; ethanol, EtOH, 25° C., 24 hrs): 3500 µg/mL | solubility at 24 h ([1]; methanol, MeOH, 25° C., 24 hrs): 24900 µg/mL | solubility at 24 h ([1]; Acetone, 25° C., 24 hrs): 91 µg/mL | solubility at 24 h ([1]; DMSO, 25° C., 24 hrs): 33500 µg/mL | solubility at 24 h ([1]; EtOAc (printed EtQAc), 25° C., 24 hrs): 11 µg/mL | solubility at 24 h ([1]; Heptane, 25° C., 24 hrs): 0.8 µg/mL | solubility at 24 h ([1]; Hexane, 25° C., 24 hrs): 0.4 µg/mL | solubility at 24 h ([1]; Toluene, 25° C., 24 hrs): 8.8 µg/mL | form change ([1]; organic solvents other than DMSO): No form change | pKa [2]: 8.68 | MEC Ave. ([3]; 235 nm): 26184.9 L/mol/cm | MEC ([3]; 235 nm, single solution, ACN:H2O (1:1, v/v), hydrochloride): 26246.5 L/mol/cm and 26123.4 L/mol/cm | MEC Ave. ([3]; 270 nm): 29997.1 L/mol/cm | MEC ([3]; 270 nm, single solution, ACN:H2O (1:1, v/v), hydrochloride): 30005.4 L/mol/cm and 29988.9 L/mol/cm | MEC Ave. ([3]; 290 nm): 13591.0 L/mol/cm | MEC ([3]; 290 nm, single solution, ACN:H2O (1:1, v/v), hydrochloride): 13615.7 L/mol/cm and 13566.4 L/mol/cm | MEC Ave. ([3]; 365 nm): 2162.6 L/mol/cm | MEC ([3]; 365 nm, single solution, ACN:H2O (1:1, v/v), hydrochloride): 2207.7 L/mol/cm and 2117.4 L/mol/cm | MEC ([3]; at all selected wavelength): > 1000 L/mol/cm | Average of Log D7.6 ([4]; 24 h): 2.87 | logP ([4]; calculated: Log D7.6 + lg[1+10^(pKa-pH)]): 4 | logD [4]: 2.87
